According to PMC9116245, “New 1,2,3-triazole linked ciprofloxacin-chalcones induce DNA damage by inhibiting human topoisomerase I& II and tubulin polymerization” (Journal of Enzyme Inhibition and Medicinal Chemistry, 2022):
Where two headings read alike, the source gives them in different places. Each block holds one molecule with its values, some of them ahead of it.

Columns and labels:
[1] = system: polymerised tubulin; assay: Western blot of polymerised tubulin in HCT116 cells; format: cell-based, human; details: HCT116, IC50 values of compounds
Protocol: (§1) The process of tubulin polymerisation in the cells is important for the completion of mitosis and is targeted for cancer treatment. It has been reported that the suppression of tubulin polymerisation will arrest the cells at the G2/M and it eventually leads to cell death. To test the tubulin-disruptive effect of the CP hybrids, HCT116 cells were analysed by immunocytochemistry. HCT116 cells were incubated for 36 h with IC50 of the CP hybrids (4a, 4b, 4e, 4i, and 4j), nocodazole (a well-known tubulin polymerisation inhibitor, as a positive control), DMSO or Paclitaxel (a well-known tubulin polymerisation inducer, as a negative control), and tubulin was visualised by immunofluorescence microscopy. An antibody for α-tubulin was used. […] Moreover, a Western blot was performed to verify the tubulin polymerisation inhibition ability of the synthesised compounds (Figure 8(B)). The level of polymerised tubulin was decreased in HCT116 cells treated with IC50 values of CP hybrids 4a, 4b, 4e, 4i, 4j, or nocodazole.
Western blotting analysis for HCT116 cells was performed according to the reported procedure in the literature[77–79] to determine the effects of CP hybrids; 4a, 4b, 4e, 4i, and 4j on the expression of polymerised tubulin, γH2AX, p-ATR, p-CHK1, and p-Cdc25C by using the appropriate antibody. See Supplementary Appendix A.

[2] = system: tubulin polymerisation; assay: Tubulin immunofluorescence microscopy in HCT116 cells; format: cell-based, human; details: HCT116, IC50 of compound, 36 h
Protocol: as §1
HCT116 cells were cultured and treated with the IC50 of the potent compounds (4a, 4b, 4e, 4i, and 4j) or DMSO (control), fixed, permeabilized, and they were incubated with either γH2AX or α-tubulin antibody as the reported procedure in the literature. Confocal images were captured using a Confocal Microscope with a 63X objective. All images were processed using ImageJ software. See Supplementary Appendix A.

[3] = system: HCT116; assay: MTT assay; format: cell-based; details: Homo sapiens, HCT-116, 24 h incubation
Protocol: (§2) The proliferation of colorectal cancer cells (HCT116, HT29 and Caco-2) was assessed using MTT assay as previously reported. Cells were treated with increasing concentrations of 1, 5, 10, 20, 40, 80 or 100 µM of CP hybrids 4a-j, doxorubicin, or DMSO. See Supplementary Appendix A.

[4] = system: HT-29; assay: MTT assay; format: cell-based; details: Homo sapiens; HT-29, MTT assay, 24 h incubation
Protocol: as §2

[5] = system: Caco-2; assay: MTT assay; format: cell-based; details: Homo sapiens; Caco-2, MTT assay, 24 h incubation
Protocol: as §2

[6] = system: Human Embryonic Kidney (HEK) 293 cells; assay: Cytotoxicity assay with non-cancerous cells (MTS); format: cell-based; details: Homo sapiens; HEK293, 72 h incubation
[7] = system: normal lung fibroblast WI-38; design: method as in PMID 27555286; details: normal lung fibroblast WI-38, printed in Figure 1; cited from earlier work
[8] = system: non small lung cancer A459; design: method as in PMID 27555286; details: non small lung cancer A459, printed in Figure 1; cited from earlier work
[9] = system: leukemia SR; design: method as in PMID 33248713, PMID 24090914; details: Figure 1; cited from earlier work
[10] = design: method as in PMID 33248713, PMID 24090914; details: Figure 1; cited from earlier work
[11] = system: MCF-7 cancer cell lines; design: method as in earlier work; details: cited from earlier work

SMILES: COC(=O)Nc1nc2ccc(C(=O)c3cccs3)cc2[nH]1 [nocodazole, reference compound]
level of polymerised tubulin, Western blot [1]: decreased
tubulin polymerisation, morphological changes by immunofluorescence [2]: significant tubulin polymerisation inhibition

IC50 [3]: 1.22 ± 0.27 µM
IC50 [4]: 0.88 ± 0.58 µM
IC50 [5]: 4.15 ± 1.08 µM
SMILES: COc1cccc2c1C(=O)c1c(O)c3c(c(O)c1C2=O)C[C@@](O)(C(=O)CO)C[C@@H]3O[C@H]1C[C@H](N)[C@H](O)[C@H](C)O1 [Doxorubicin, reference compound]
IC50 [6]: 0.0475 µM

SMILES: O=C(CN1CCN(c2cc3c(cc2F)c(=O)c(C(=O)O)cn3C2CC2)CC1)Nc1ccc(Cl)cc1 [III]
IC50 [7]: > 100 µM
IC50 [8]: 14.8 µM

SMILES: CC[C@@]1(O)C(=O)OCc2c1cc1n(c2=O)Cc2cc3ccccc3nc2-1 [Camptothecin]
IC50 [9]: 3.32 µM

SMILES: O=C(CN1CCN(c2cc3c(cc2F)c(=O)c(C(=O)O)cn3C2CC2)CC1)Nc1ccc(C(=O)/C=C/c2ccccc2)cc1 [I]
GI50 [10]: 0.43 to 39.6 µM

SMILES: COc1cc(/C=C/C(=O)c2ccc(NC(=O)N3CCN(c4cc5c(cc4F)c(=O)c(C(=O)O)cn5C4CC4)CC3)cc2)cc(OC)c1OC [II]
IC50 [9]: 0.64 µM

SMILES: CCOc1cc(/C=C/C(=O)c2cccc(O)c2)ccc1OCc1cn(-c2cc(Cl)ccc2O)nn1 [X]
IC50 ([11]; MCF-7, 24 h): 1.27 µM
IC50 ([11]; MCF-7, 48 h): 0.02 µM
